# Tests used:
# intracranial pressure [1] = assay: Effect of i.v. injection of test compounds on intracranial pressure in rats; type: in vivo, rat (male SD-strain); conditions: rat, 0 minute = 100
# From the text: Male SD-strain rats weighing 500 to 800 g (each group consisting of 5 rats) were anesthetized with urethane. […] Intracranial pressure (i.e., cerebrospinal fluid pressure in the cisterna magna) was continuously monitored via a cannula inserted in the cisterna magna. The cannula was connected to a transducer, and recordings were made on graph paper.
# intracranial pressure [2] = assay: Effect of i.v. injection of test compounds on intracranial pressure in beagle dogs; type: in vivo, beagle dog (male); conditions: beagle dog, 1.0 mg/kg, 0 minute = 100
# Method: A solution of a test compound in an aqueous 5 w/v % mannitol solution was infused via the saphenous vein of the beagle dogs at a rate of 0.1 ml/kg/minute for 40 minutes.
# [3] = tested on: increased intracranial pressure; assay: Effect of i.v. injection on increased intracranial pressure (autologous blood injected into the brain) in rats; type: in vivo, rat (male SD-strain); conditions: rat, 0 minute = 100
# Method: Male SD-strain rats weighing 500 to 800 g (each group consisting of 5 rats) were anesthetized with urethane. 0.03 ml of autologous blood were injected into the brain of the rats to induce an increase in intracranial pressure. The level of increased intracranial pressure in the rats was about twice as high as its initial level 120 to 180 minutes after injection of autologous blood and said increased intracranial pressure was maintained at an approximately same level thereafter. 180 minutes after injection of autologous blood, a solution of a test compound in an aqueous 5 w/v % mannitol solution was infused via the femoral vein of the rats at a rate of 0.2 ml/kg/minute for 40 minutes. Then, the effect of the test compound on the intracranial pressure was calculated according to the following formula: [formula]
# Compound No. 4 listed in Example 1 was used in this experiment.
# Acute toxicity = conditions: in vivo, mouse, observed for a week
# Method: The 50% lethal dose (LD50) of the test compound was calculated according to the Weil's method from the number of mice died a week after the administration.
# [4] = tested on: increased intracranial pressure; assay: Effect of i.v. injection on increased intracranial pressure (autologous blood injected into the lateral ventricle) in rabbits; type: in vivo, rabbit (male); conditions: rabbit, 0 minute = 100
# Method: Male rabbits weighing 2.8 to 3.2 kg (each group consisting of 6 rabbits) were anethetized with urethane. 0.1 to 0.2 ml of autologous blood were injected into the lateral ventricle of the rabbits to induce a rise in intracranial pressure. The level of intracranial pressure was about 2.3 times as high as its initial level 150 to 180 minutes after injection of autologous blood. 180 minutes after injection of autologous blood, a solution of a test compound in an aqueous 10 w/v % maltose solution was administered intravenously to the rabbits at a rate of 0.1 ml/kg/minute for 20 minutes. Then, the effect of the test compound on the intracranial pressure was calculated in the same manner as described in Example 2. [The initial intracranial pressure (i.e., the normal intracranial pressure measured before injection of autologous blood) was 75±2.6 mm H2 O, and the intracranial pressure measured before administration of test compound was 176±16 mm H2 O.]
# Compound 4 listed in Example 1 was used in this experiment.
# [5] = tested on: common carotid blood flow; assay: Effect of test compounds on common carotid blood flow in cats; type: in vivo; conditions: cat, right thyroid artery, 30 seconds after administration, baseline 24.1 ± 0.9 ml/minute
# Method: A solution of a test compound in an aqueous 10 w/v % maltose solution was injected into the right thyroid artery of the cats. The common carotid artery blood flow was continuously monitored via the flow probe set at the common carotid artery. The flow probe was connected to an electromagnetic flow meter, and recordings were made on graph paper. The effect of the test compound on the common carotid blood flow was estimated 30 seconds after administration of the test compound.
# intracranial pressure [6] = assay: Effect of p.o. administration of test compounds on intracranial pressure in rats; type: in vivo, rat (male SD-strain); conditions: rat, 8 mg/kg, 240 minutes, 0 minute = 100
# Method: Male SD-strain rats weighing 500 to 800 g (each group consisting of 5 rats) were fasted for about 20 hours, and anesthetized with urethane. A suspension of a test compound in aqueous 0.5 w/v % carboxymethyl-cellulosewas administered orally to the rats. Then, the effect of the compound on the intracranial pressure was estimated in the same manner as described in Example 1.
# Compound 4 (free base) listed in Example 1 was used in this experiment.
# [7] = Therapeutic index (ratio of LD50 to minimum effective dose); type: in vivo; conditions: orally or intravenously
# From the text: Unlike the hypertonic solutions of glycerol or mannitol, the therapeutic effect of the propanol derivative (I) of the present invention is not ascribable to the cerebral dehydrating effect and, therefore, said derivative (I) can be used either orally or parenterally. The propanol derivative (I) may also be used for the treatment of prophylaxis of increased intracranial pressure during and after brain surgical operation. Moreover, the propanol derivative (I) may be used for improving impaired consciousness, nervous disturbance and subjective symptoms (e.g., headache, nausea, vomiting) which are attributed to the cerebral diseases such as those mentioned hereinbefore. Further, whereas it is known that cerebral edema induces a rise in intracranial pressure and increased intracranial pressure serves to cause a build-up of edema which in turn impairs cerebral circulation, the propanol derivative (I) can interrupt this vicious cycle of cerebral diseases because of its potent intracranial pressure-lowering effect and its ability to ameliorate the cerebral circulatory impairment. The toxicity of the propanol derivative (I) of the present invention is low.
smiles,measurement,setting,value
"COc1cc(NC(C)=O)ccc1OCC(O)CN1CCN(c2ccccc2)CC1 (centres unmarked) [Compound 1, 1-(4-acetamido-2-methoxyphenoxy)-3-(4-phenylpiperazino)-2-propanol]",Changes in intracranial pressure,"intracranial pressure [1]; 1.0 mg/kg, 40 minutes",81.4%
same,Changes in intracranial pressure,"intracranial pressure [1]; 1.0 mg/kg, 60 minutes",85.5%
same,Changes in intracranial pressure,"intracranial pressure [1]; 1.0 mg/kg, 120 minutes",91.7%
same,Changes in intracranial pressure,"intracranial pressure [1]; 1.0 mg/kg, 180 minutes",92.8%
"COc1cc(NC(C)=O)ccc1OCC(O)CN1CCN(c2ccccc2Cl)CC1 (centres unmarked) [Compound 3, 1-(4-acetamido-2-methoxyphenoxy)-3-[4-(2-chlorophenyl)piperazino]-2-propanol]",Changes in intracranial pressure,"intracranial pressure [1]; 1.0 mg/kg, 40 minutes",92.4%
same,Changes in intracranial pressure,"intracranial pressure [1]; 1.0 mg/kg, 60 minutes",87.5%
same,Changes in intracranial pressure,"intracranial pressure [1]; 1.0 mg/kg, 120 minutes",85.3%
same,Changes in intracranial pressure,"intracranial pressure [1]; 1.0 mg/kg, 180 minutes",85.0%
"COc1cc(NC(C)=O)ccc1OCC(O)CN1CCN(c2ccccc2F)CC1 (centres unmarked) [Compound 5, 1-(4-acetamido-2-methoxyphenoxy)-3-[4-(2-fluorophenyl)piperazino]-2-propanol]",Changes in intracranial pressure,"intracranial pressure [1]; 1.0 mg/kg, 40 minutes",84.0%
same,Changes in intracranial pressure,"intracranial pressure [1]; 1.0 mg/kg, 60 minutes",84.0%
same,Changes in intracranial pressure,"intracranial pressure [1]; 1.0 mg/kg, 120 minutes",81.3%
same,Changes in intracranial pressure,"intracranial pressure [1]; 1.0 mg/kg, 180 minutes",87.5%
"COc1cc(NC(C)=O)ccc1OCC(O)CN1CCN(c2ccccc2C)CC1 (centres unmarked) [Compound 2, 1-(4-acetamido-2-methoxyphenoxy)-3-[4-(2-methylphenyl)piperazino]-2-propanol]",Changes in intracranial pressure,"intracranial pressure [1]; 1.0 mg/kg, 40 minutes",90.5%
same,Changes in intracranial pressure,"intracranial pressure [1]; 1.0 mg/kg, 60 minutes",90.7%
same,Changes in intracranial pressure,"intracranial pressure [1]; 1.0 mg/kg, 120 minutes",90.1%
same,Changes in intracranial pressure,"intracranial pressure [1]; 1.0 mg/kg, 180 minutes",91.5%
"COc1cc(NC(C)=O)ccc1OCC(O)CN1CCN(c2cccc(F)c2)CC1.Cl (centres unmarked) [Compound 4, 1-(4-acetamido-2-methoxyphenoxy)-3-[4-(3-fluorophenyl)piperazino]-2-propanol hydrochloride]",Changes in intracranial pressure,intracranial pressure [2]; 40 minutes,80.3%
same,Changes in intracranial pressure,intracranial pressure [2]; 60 minutes,75.6%
same,Changes in intracranial pressure,intracranial pressure [2]; 120 minutes,82.5%
same,Changes in intracranial pressure,intracranial pressure [2]; 180 minutes,83.1%
same,Changes in intracranial pressure,"intracranial pressure [1]; 0.5 mg/kg, 40 minutes",84.3%
same,Changes in intracranial pressure,"intracranial pressure [1]; 0.5 mg/kg, 60 minutes",80.5%
same,Changes in intracranial pressure,"intracranial pressure [1]; 0.5 mg/kg, 120 minutes",86.5%
same,Changes in intracranial pressure,"intracranial pressure [1]; 0.5 mg/kg, 180 minutes",86.7%
same,Changes in intracranial pressure,"intracranial pressure [1]; 1.0 mg/kg, 40 minutes",82.6%
same,Changes in intracranial pressure,"intracranial pressure [1]; 1.0 mg/kg, 60 minutes",78.1%
same,Changes in intracranial pressure,"intracranial pressure [1]; 1.0 mg/kg, 120 minutes",82.2%
same,Changes in intracranial pressure,"intracranial pressure [1]; 1.0 mg/kg, 180 minutes",85.2%
same,Changes in intracranial pressure,"intracranial pressure [1]; 2.0 mg/kg, 40 minutes",81.5%
same,Changes in intracranial pressure,"intracranial pressure [1]; 2.0 mg/kg, 60 minutes",72.5%
same,Changes in intracranial pressure,"intracranial pressure [1]; 2.0 mg/kg, 120 minutes",74.6%
same,Changes in intracranial pressure,"intracranial pressure [1]; 2.0 mg/kg, 180 minutes",78.9%
same,Changes in intracranial pressure,"[3]; 0.5 mg/kg, 40 minutes",68.0%
same,Changes in intracranial pressure,"[3]; 0.5 mg/kg, 60 minutes",65.4%
same,Changes in intracranial pressure,"[3]; 0.5 mg/kg, 120 minutes",74.6%
same,Changes in intracranial pressure,"[3]; 0.5 mg/kg, 180 minutes",76.0%
same,Changes in intracranial pressure,"[3]; 1.0 mg/kg, 40 minutes",56.7%
same,Changes in intracranial pressure,"[3]; 1.0 mg/kg, 60 minutes",60.9%
same,Changes in intracranial pressure,"[3]; 1.0 mg/kg, 120 minutes",59.2%
same,Changes in intracranial pressure,"[3]; 1.0 mg/kg, 180 minutes",60.6%
same,LD50 at 168 h,Acute toxicity; iv,280 mg/kg
same,Changes in intracranial pressure,"[4]; 1 mg/kg, 20 minutes",96.4%
same,Changes in intracranial pressure,"[4]; 1 mg/kg, 60 minutes",91.7%
same,Changes in intracranial pressure,"[4]; 1 mg/kg, 120 minutes",82.1%
same,Changes in intracranial pressure,"[4]; 1 mg/kg, 180 minutes",94.0%
same,Changes in intracranial pressure,"[4]; 1 mg/kg, 240 minutes",91.7%
same,Changes in intracranial pressure,"[4]; 1 mg/kg, 300 minutes",91.7%
same,Changes in intracranial pressure,"[4]; 2 mg/kg, 20 minutes",89.5%
same,Changes in intracranial pressure,"[4]; 2 mg/kg, 60 minutes",77.1%
same,Changes in intracranial pressure,"[4]; 2 mg/kg, 120 minutes",68.6%
same,Changes in intracranial pressure,"[4]; 2 mg/kg, 180 minutes",63.8%
same,Changes in intracranial pressure,"[4]; 2 mg/kg, 240 minutes",65.7%
same,Changes in intracranial pressure,"[4]; 2 mg/kg, 300 minutes",63.8%
same,Increase in common carotid blood flow,[5]; 1 μg/kg,3.5 ± 0.8 Δml/minute
same,Increase in common carotid blood flow,[5]; 5 μg/kg,6.1 ± 0.6 Δml/minute
same,Increase in common carotid blood flow,[5]; 10 μg/kg,8.8 ± 1.3 Δml/minute
"COc1cc(NC(C)=O)ccc1OCC(O)CN1CCN(c2cccc(C(F)(F)F)c2)CC1 (centres unmarked) [Compound 6, 1-(4-acetamido-2-methoxyphenoxy)-3-[4-(3-trifluoromethylphenyl)piperazino]-2-propanol]",Changes in intracranial pressure,"intracranial pressure [1]; 1.0 mg/kg, 40 minutes",97.0%
same,Changes in intracranial pressure,"intracranial pressure [1]; 1.0 mg/kg, 60 minutes",95.0%
same,Changes in intracranial pressure,"intracranial pressure [1]; 1.0 mg/kg, 120 minutes",90.5%
same,Changes in intracranial pressure,"intracranial pressure [1]; 1.0 mg/kg, 180 minutes",92.8%
"COc1cc(NC(C)=O)ccc1OCC(O)CN1CCN(c2cccc(F)c2)CC1 (centres unmarked) [Compound 4 (free base), 1-(4-acetamido-2-methoxyphenoxy)-3-[4-(3-fluorophenyl)piperazino]-2-propanol]",Changes in intracranial pressure,intracranial pressure [6],75.6%
same,therapeutic index (50% lethal dose / minimum effective dose),[7],not less than 400
same,LD50 at 168 h,Acute toxicity; po,1550 mg/kg
"COc1ccc(Cc2nccc3cc(OC)c(OC)cc23)cc1OC [Papaverine, reference compound]",Increase in common carotid blood flow,[5]; 10 μg/kg,2.6 ± 0.2 Δml/minute
same,Increase in common carotid blood flow,[5]; 25 μg/kg,5.4 ± 0.6 Δml/minute
